US20110319392A1, “Thiazole Sulfonamide And Oxazole Sulfonamide Kinase Inhibitors” (priority 2009, published 2011)
Counter-ions that a name gives are not always drawn.

Assays:
HT-29 tumor cells = assay: Cell growth inhibition assay (CellTiter-Glo), HT-29; format: cell-based, Human; details: Homo sapiens
In short: (§1)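 Cells plated at 500 cells/well in their growth media, dosed next day with nine-step 1:3 compound dilutions (final DMSO 0.2%), then incubated 3 days at 37° C, 5% CO2. Total ATP read by CellTiter-Glo luminescence as a surrogate for cell number; IC50 interpolated from 4-parameter fit versus DMSO controls.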

Colo205 tumor cells = assay: Cell growth inhibition assay (CellTiter-Glo), Colo205; format: cell-based, Human; details: Homo sapiens, COLO 205, 72 h; 3 days incubation
In short: as §1

HN5 tumor cells = assay: Cell growth inhibition assay (CellTiter-Glo), HN5; format: cell-based, Human; details: Homo sapiens, 72 h; 3 days incubation
In short: as §1

SK-MEL-3 tumor cells = assay: Cell growth inhibition assay (CellTiter-Glo), SK-MEL-3; format: cell-based, Human; details: Homo sapiens, SK-MEL3
In short: as §1

BT474 tumor cells = assay: Cell growth inhibition assay (CellTiter-Glo), BT474; format: cell-based, Human; details: Homo sapiens, BT-474, 72 h, 3 days incubation
SK-MEL-28 tumor cells = assay: Cell growth inhibition assay (CellTiter-Glo), SK-MEL-28; format: cell-based, Human; details: Homo sapiens, SK-MEL-28, 72 h; 3 days incubation
In short: as §1

A375P F11s tumor cells = assay: Cell growth inhibition assay (CellTiter-Glo), A375P F11s; format: cell-based, Human; details: Homo sapiens
In short: as §1

B-Raf = B-Raf (Homo sapiens, UniProt P15056); assay: B-Raf Accelerated MEK ATPase assay (BRAMA), Method A or B; format: biochemical; details: Method B: final MEK 150 nM, single end point read
Chain of B-Raf (P15056 whole entry): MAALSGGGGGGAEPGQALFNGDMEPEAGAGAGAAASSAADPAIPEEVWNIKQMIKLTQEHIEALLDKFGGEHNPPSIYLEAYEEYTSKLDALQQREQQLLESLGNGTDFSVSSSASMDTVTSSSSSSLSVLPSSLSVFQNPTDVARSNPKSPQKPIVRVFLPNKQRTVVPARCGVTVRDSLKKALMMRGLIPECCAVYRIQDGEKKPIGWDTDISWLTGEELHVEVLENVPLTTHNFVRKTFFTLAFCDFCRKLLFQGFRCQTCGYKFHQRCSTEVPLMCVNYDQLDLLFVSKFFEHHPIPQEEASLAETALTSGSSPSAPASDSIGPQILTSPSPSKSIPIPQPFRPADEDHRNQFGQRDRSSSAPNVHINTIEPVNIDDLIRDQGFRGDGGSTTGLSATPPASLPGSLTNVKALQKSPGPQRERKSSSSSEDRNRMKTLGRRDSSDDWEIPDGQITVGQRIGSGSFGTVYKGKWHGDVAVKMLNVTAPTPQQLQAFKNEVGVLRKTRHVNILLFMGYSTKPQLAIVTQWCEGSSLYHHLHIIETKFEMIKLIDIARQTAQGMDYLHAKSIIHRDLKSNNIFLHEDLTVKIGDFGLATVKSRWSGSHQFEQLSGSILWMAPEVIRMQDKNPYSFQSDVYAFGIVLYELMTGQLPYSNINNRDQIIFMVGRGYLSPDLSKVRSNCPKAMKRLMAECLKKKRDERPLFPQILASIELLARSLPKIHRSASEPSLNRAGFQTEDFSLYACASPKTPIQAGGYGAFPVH
In short: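 Activated Raf plus non-phosphorylated MEK drives MEK-mediated ATP hydrolysis; ADP formation coupled via pyruvate kinase/lactate dehydrogenase to NADH oxidation. Method A read kinetically; Method B used 150 nM final MEK and a single end-point read.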

Compound | IC50 (HT-29 tumor cells) | IC50 (Colo205 tumor cells) | IC50 (HN5 tumor cells) | IC50 (SK-MEL-3 tumor cells) | IC50 (BT474 tumor cells) | IC50 (SK-MEL-28 tumor cells) | IC50 (A375P F11s tumor cells) | IC50 (B-Raf)
CC(C)c1nc(-c2cccc(NS(=O)(=O)c3c(F)cccc3F)c2)c(-c2ccnc(Nc3ccc(N4CCOCC4)nc3)n2)s1 [Example 17, 2,6-Difluoro-N-{3-[2-(1-methylethyl)-5-(2-{[6-(4-morpholinyl)-3-pyridinyl]amino}-4-pyrimidinyl)-1,3-thiazol-4-yl]phenyl}benzenesulfonamide] | < 100 nM | < 100 nM | 100 to 1000 nM | < 100 nM | > 1000 nM | < 100 nM | < 100 nM | < 100 nM
CC(C)c1nc(-c2cccc(NS(=O)(=O)c3c(F)cccc3F)c2)c(-c2ccnc(Nc3ccc(N4CCN5CCOC[C@H]5C4)nc3)n2)s1 [Example 15] | < 100 nM | < 100 nM | 100 to 1000 nM | < 100 nM | > 1000 nM | < 100 nM | < 100 nM | < 100 nM
CC(=O)N1CCN(c2ccc(Nc3nccc(-c4sc(C(C)C)nc4-c4cccc(NS(=O)(=O)C5CCCCC5)c4)n3)cn2)CC1 [Example 39] | > 1000 nM | 100 to 1000 nM | > 1000 nM | 100 to 1000 nM | > 1000 nM | 100 to 1000 nM | 100 to 1000 nM | < 100 nM
CC(=O)N1CCN(c2ccc(Nc3nccc(-c4sc(C(C)C)nc4-c4cccc(NS(=O)(=O)c5cccc(F)c5)c4)n3)cn2)CC1 [Example 11, N-{3-[5-(2-{[6-(4-Acetyl-1-piperazinyl)-3-pyridinyl]amino}-4-pyrimidinyl)-2-(1-methylethyl)-1,3-thiazol-4-yl]phenyl}-3-fluorobenzenesulfonamide] | < 100 nM | < 100 nM | > 1000 nM | < 100 nM | > 1000 nM | < 100 nM | < 100 nM | < 100 nM
CC(C)c1nc(-c2ccc(F)c(NS(=O)(=O)c3c(F)cccc3F)c2)c(-c2ccnc(Nc3ccc(N4CCC(C#N)CC4)nc3)n2)s1 [Example 24, N-{5-[5-(2-{[6-(4-Cyano-1-piperidinyl)-3-pyridinyl]amino}-4-pyrimidinyl)-2-(1-methylethyl)-1,3-thiazol-4-yl]-2-fluorophenyl}-2,6-difluorobenzenesulfonamide] | < 100 nM | < 100 nM | > 1000 nM | 100 to 1000 nM | > 1000 nM | < 100 nM | < 100 nM | < 100 nM
O=S(=O)(Nc1cccc(-c2nc(N3CCCCC3)sc2-c2ccnc(Nc3ccc(N4CCOCC4)nc3)n2)c1)c1c(F)cccc1F [Example 151] | < 100 nM | < 100 nM | 100 to 1000 nM | < 100 nM | > 1000 nM | < 100 nM | < 100 nM | < 100 nM
O=S(=O)(Nc1cc(-c2nc(N3CCCC3)sc2-c2ccnc(Nc3ccc(N4CCOCC4)nc3)n2)ccc1F)c1c(F)cccc1F [Example 26, 2,6-Difluoro-N-{2-fluoro-5-[5-(2-{(6-(4-morpholinyl)-3-pyridinyl]amino}-4-pyrimidinyl)-2-(1-pyrrolidinyl)-1,3-thiazol-4-yl]phenyl}benzenesulfonamide] | > 1000 nM | < 100 nM | > 1000 nM | 100 to 1000 nM | > 1000 nM | < 100 nM | < 100 nM | < 100 nM
CC(=O)N1CCN(c2ccc(Nc3nccc(-c4sc(C(C)C)nc4-c4cccc(NS(=O)(=O)c5cn(C)cn5)c4)n3)cn2)CC1 [Example 36] | > 1000 nM | 100 to 1000 nM | > 1000 nM | 100 to 1000 nM | > 1000 nM | 100 to 1000 nM | 100 to 1000 nM | < 100 nM
CC(C)c1nc(-c2cccc(NS(=O)(=O)c3c(F)cccc3F)c2)c(-c2ccnc(Nc3ccc(OC4CCN(CCS(C)(=O)=O)CC4)c(F)c3)n2)s1 [Example 13, 2,6-Difluoro-N-{3-[5-(2-{[3-fluoro-4-({1-[2-(methylsulfonyl)ethyl]-4-piperidinyl}oxy)phenyl]amino}-4-pyrimidinyl)-2-(1-methylethyl)-1,3-thiazol-4-yl]phenyl}benzenesulfonamide hydrochloride] | 100 to 1000 nM | < 100 nM | 100 to 1000 nM | < 100 nM | > 1000 nM | < 100 nM | < 100 nM | < 100 nM

Further lines, results first:

IC50 (HT-29 tumor cells) | IC50 (Colo205 tumor cells) | IC50 (HN5 tumor cells) | IC50 (SK-MEL-3 tumor cells) | IC50 (BT474 tumor cells) | IC50 (SK-MEL-28 tumor cells) | IC50 (A375P F11s tumor cells) | IC50 (B-Raf) | Compound
< 100 nM | < 100 nM | < 100 nM | < 100 nM | > 1000 nM | < 100 nM | < 100 nM | < 100 nM | O=S(=O)(Nc1cccc(-c2nc(N3CCOCC3)sc2-c2ccnc(Nc3ccc(N4CCOCC4)nc3)n2)c1Cl)c1c(F)cccc1F [Example 146]
< 100 nM | < 100 nM | 100 to 1000 nM | < 100 nM | 100 to 1000 nM | 100 to 1000 nM | 100 to 1000 nM | 100 to 1000 nM | COc1cc(N2CCN(CCS(C)(=O)=O)CC2)c(C)cc1Nc1nccc(-c2sc(N3CCOCC3)nc2-c2cccc(NS(=O)(=O)c3c(F)cccc3F)c2)n1 [Example 128]
100 to 1000 nM | < 100 nM | 100 to 1000 nM | 100 to 1000 nM | > 1000 nM | 100 to 1000 nM | 100 to 1000 nM | < 100 nM | O=S(=O)(Nc1cc(-c2nc(N3CCOCC3)sc2-c2ccnc(Nc3ccc(N4CCOCC4)nc3)n2)ccc1F)c1c(F)cccc1F [Example 121]
100 to 1000 nM | < 100 nM | 100 to 1000 nM | 100 to 1000 nM | > 1000 nM | < 100 nM | 100 to 1000 nM | < 100 nM | CC(C)c1nc(-c2ccc(F)c(NS(=O)(=O)c3c(F)cccc3F)c2)c(-c2ccnc(Nc3ccnc(N4CCOCC4)c3)n2)s1 [Example 117]
< 100 nM | < 100 nM | 100 to 1000 nM | < 100 nM | > 1000 nM | < 100 nM | < 100 nM | < 100 nM | CS(=O)(=O)c1cccc(Nc2nccc(-c3sc(N4CCOCC4)nc3-c3cccc(NS(=O)(=O)c4c(F)cccc4F)c3F)n2)c1 [Example 130]
100 to 1000 nM | < 100 nM | > 1000 nM | 100 to 1000 nM | > 1000 nM | < 100 nM | 100 to 1000 nM | < 100 nM | CC(C)c1nc(-c2cccc(NS(=O)(=O)c3c(F)cccc3F)n2)c(-c2ccnc(Nc3ccc(N4CCOCC4)nc3)n2)s1 [Example 44]
100 to 1000 nM | < 100 nM | > 1000 nM | < 100 nM | 100 to 1000 nM | < 100 nM | < 100 nM | < 100 nM | CCOc1ccc(Nc2nccc(-c3sc(N4CCCC4)nc3-c3cccc(NS(=O)(=O)c4c(F)cccc4F)c3)n2)cc1N1CCN(CCS(C)(=O)=O)CC1 [Example 109]
< 100 nM | < 100 nM | > 1000 nM | < 100 nM | > 1000 nM | < 100 nM | < 100 nM | < 100 nM | COc1ccc(S(C)(=O)=O)cc1Nc1nccc(-c2sc(N3CCOCC3)nc2-c2cccc(NS(=O)(=O)c3c(F)cccc3F)c2F)n1 [Example 157]
